Assay results reported in the supplement of paper PMC10307832.

Experiments:
Test in all cases: relative viability (nuclei count vs DMSO), 5 days (fraction); higher = more cells survive
NCI-H1299 = tested on: NCI-H1299
Summary of the method: (§1)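 Five library-drug doses in √10 steps were combined with a fixed anchor-drug dose, or a single drug was given alone, by pin tool to lung cancer cell lines in 1536-well plates the day after seeding. Nuclei were stained and counted after 5 days. Relative viability is the nuclei count in treated wells over that in vehicle wells, taken as the median of duplicate plates.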

LK-2 = tested on: LK-2
Summary of the method: as §1

NCI-H522 = tested on: NCI-H522
Summary of the method: as §1

A549 = tested on: A549
Summary of the method: as §1

NCI-H1648 = tested on: NCI-H1648
Summary of the method: as §1

LCLC-103H = tested on: LCLC-103H
Summary of the method: as §1

EBC-1 = tested on: EBC-1
Summary of the method: as §1

NCI-H1355 = tested on: NCI-H1355
Summary of the method: as §1

Calu-6 = tested on: Calu-6
Summary of the method: as §1

NCI-H1666 = tested on: NCI-H1666
Summary of the method: as §1

NCI-H1703 = tested on: NCI-H1703
Summary of the method: as §1

IA-LM = tested on: IA-LM
Summary of the method: as §1

COR-L 105 = tested on: COR-L 105
Summary of the method: as §1

NCI-H520 = tested on: NCI-H520
Summary of the method: as §1

## Cc1sc2c(c1C)C(c1ccc(Cl)cc1)=N[C@@H](CC(=O)OC(C)(C)C)c1nnc(C)n1-2 [JQ1] + O=C(c1cc(Cc2n[nH]c(=O)c3ccccc23)ccc1F)N1CCN(C(=O)C2CC2)CC1 [Olaparib] (partner 8 µM)
NCI-H1299; first compound 0.04 µM
  relative viability: 0.931
NCI-H1299; first compound 0.1265 µM
  relative viability: 0.787
NCI-H1299; first compound 0.4 µM
  relative viability: 0.972
NCI-H1299; first compound 1.265 µM
  relative viability: 0.298
NCI-H1299; first compound 4 µM
  relative viability: 0.235
LK-2; first compound 0.04 µM
  relative viability: 0.639
LK-2; first compound 0.1265 µM
  relative viability: 0.74
LK-2; first compound 0.4 µM
  relative viability: 0.409
LK-2; first compound 1.265 µM
  relative viability: 0.155
LK-2; first compound 4 µM
  relative viability: 0.15
NCI-H522; first compound 0.04 µM
  relative viability: 0.577
NCI-H522; first compound 0.1265 µM
  relative viability: 0.674
NCI-H522; first compound 0.4 µM
  relative viability: 0.453
NCI-H522; first compound 1.265 µM
  relative viability: 0.388
NCI-H522; first compound 4 µM
  relative viability: 0.344
A549; first compound 0.04 µM
  relative viability: 0.303
A549; first compound 0.1265 µM
  relative viability: 0.213
A549; first compound 0.4 µM
  relative viability: 0.255
A549; first compound 1.265 µM
  relative viability: 0.102
A549; first compound 4 µM
  relative viability: 0.045
NCI-H1648; first compound 0.04 µM
  relative viability: 0.66
NCI-H1648; first compound 0.1265 µM
  relative viability: 1.03
NCI-H1648; first compound 0.4 µM
  relative viability: 0.462
NCI-H1648; first compound 1.265 µM
  relative viability: 0.485
NCI-H1648; first compound 4 µM
  relative viability: 0.289
LCLC-103H; first compound 0.04 µM
  relative viability: 0.789
LCLC-103H; first compound 0.1265 µM
  relative viability: 0.714
LCLC-103H; first compound 0.4 µM
  relative viability: 0.605
LCLC-103H; first compound 1.265 µM
  relative viability: 0.528
LCLC-103H; first compound 4 µM
  relative viability: 0.432
EBC-1; first compound 0.04 µM
  relative viability: 0.74
EBC-1; first compound 0.1265 µM
  relative viability: 0.473
EBC-1; first compound 0.4 µM
  relative viability: 0.312
EBC-1; first compound 1.265 µM
  relative viability: 0.093
EBC-1; first compound 4 µM
  relative viability: 0.113
NCI-H1355; first compound 0.04 µM
  relative viability: 0.626
NCI-H1355; first compound 0.1265 µM
  relative viability: 0.697
NCI-H1355; first compound 0.4 µM
  relative viability: 0.643
NCI-H1355; first compound 1.265 µM
  relative viability: 0.403
NCI-H1355; first compound 4 µM
  relative viability: 0.344
Calu-6; first compound 0.04 µM
  relative viability: 0.536
Calu-6; first compound 0.1265 µM
  relative viability: 0.408
Calu-6; first compound 0.4 µM
  relative viability: 0.511
Calu-6; first compound 1.265 µM
  relative viability: 0.251
Calu-6; first compound 4 µM
  relative viability: 0.249
NCI-H1666; first compound 0.04 µM
  relative viability: 0.708
NCI-H1666; first compound 0.1265 µM
  relative viability: 0.616
NCI-H1666; first compound 0.4 µM
  relative viability: 0.685
NCI-H1666; first compound 1.265 µM
  relative viability: 0.662
NCI-H1666; first compound 4 µM
  relative viability: 0.577
NCI-H1703; first compound 0.04 µM
  relative viability: 0.458
NCI-H1703; first compound 0.4 µM
  relative viability: 0.498
NCI-H1703; first compound 1.265 µM
  relative viability: 0.236
NCI-H1703; first compound 4 µM
  relative viability: 0.234
IA-LM; first compound 0.04 µM
  relative viability: 0.739
IA-LM; first compound 0.1265 µM
  relative viability: 0.508
IA-LM; first compound 0.4 µM
  relative viability: 0.17
IA-LM; first compound 1.265 µM
  relative viability: 0.115
IA-LM; first compound 4 µM
  relative viability: 0.117
COR-L 105; first compound 0.04 µM
  relative viability: 0.624
COR-L 105; first compound 0.1265 µM
  relative viability: 0.497
COR-L 105; first compound 0.4 µM
  relative viability: 0.385
COR-L 105; first compound 1.265 µM
  relative viability: 0.329
COR-L 105; first compound 4 µM
  relative viability: 0.351
NCI-H520; first compound 0.04 µM
  relative viability: 0.285
NCI-H520; first compound 0.1265 µM
  relative viability: 0.298
NCI-H520; first compound 0.4 µM
  relative viability: 0.251
NCI-H520; first compound 1.265 µM
  relative viability: 0.165
NCI-H520; first compound 4 µM
  relative viability: 0.156

## COc1cc2nccc(Oc3ccc(NC(=O)Nc4cc(C)on4)c(Cl)c3)c2cc1OC [Tivozanib] + NC(=O)Nc1cc(-c2cccc(F)c2)sc1C(=O)N[C@H]1CCCNC1 [AZD7762] (partner 0.2 µM)
LK-2; first compound 0.005 µM
  relative viability: 0.512
LK-2; first compound 0.01581 µM
  relative viability: 0.278
LK-2; first compound 0.05 µM
  relative viability: 0.494
LK-2; first compound 0.1581 µM
  relative viability: 0.252
LK-2; first compound 0.5 µM
  relative viability: 0.357
NCI-H522; first compound 0.005 µM
  relative viability: 0.903
NCI-H522; first compound 0.01581 µM
  relative viability: 0.793
NCI-H522; first compound 0.05 µM
  relative viability: 0.784
NCI-H522; first compound 0.1581 µM
  relative viability: 0.811
NCI-H522; first compound 0.5 µM
  relative viability: 0.857
NCI-H1648; first compound 0.005 µM
  relative viability: 0.666
NCI-H1648; first compound 0.01581 µM
  relative viability: 0.708
NCI-H1648; first compound 0.05 µM
  relative viability: 0.693
NCI-H1648; first compound 0.1581 µM
  relative viability: 0.585
NCI-H1648; first compound 0.5 µM
  relative viability: 0.695
LCLC-103H; first compound 0.005 µM
  relative viability: 0.758
LCLC-103H; first compound 0.01581 µM
  relative viability: 0.829
LCLC-103H; first compound 0.05 µM
  relative viability: 0.812
LCLC-103H; first compound 0.1581 µM
  relative viability: 0.689
LCLC-103H; first compound 0.5 µM
  relative viability: 0.802
NCI-H1355; first compound 0.005 µM
  relative viability: 0.737
NCI-H1355; first compound 0.01581 µM
  relative viability: 0.731
NCI-H1355; first compound 0.05 µM
  relative viability: 0.799
NCI-H1355; first compound 0.1581 µM
  relative viability: 0.606
NCI-H1355; first compound 0.5 µM
  relative viability: 0.716
NCI-H1666; first compound 0.005 µM
  relative viability: 0.784
NCI-H1666; first compound 0.01581 µM
  relative viability: 0.761
NCI-H1666; first compound 0.05 µM
  relative viability: 0.956
NCI-H1666; first compound 0.1581 µM
  relative viability: 0.82
NCI-H1666; first compound 0.5 µM
  relative viability: 0.845
NCI-H1703; first compound 0.005 µM
  relative viability: 0.124
NCI-H1703; first compound 0.01581 µM
  relative viability: 0.112
NCI-H1703; first compound 0.05 µM
  relative viability: 0.139
NCI-H1703; first compound 0.1581 µM
  relative viability: 0.143
NCI-H1703; first compound 0.5 µM
  relative viability: 0.118
